This passage reports animals survived results from patent publication US8900590B2 (priority 2010, dated 2014).

The test system of the experiment is H1N1 A/California/04/09. Type of experiment: in vivo, DBA/2 mice. As to conditions: 18 days.

`CCOC(=O)C1=C[C@@H](OC(CC)CC)[C@H](NC(C)=O)[C@@H](N)C1` [oseltamivir]: the animals survived result is “no survival”.
